Converted amounts (≈) assume the structure as drawn. “And” between values parts separate entries of the source, which are not always exact repeats. Equal values may be shown once. Square brackets hold non-standard residues; d marks the D form. Ends that are not written are not given here. Peptide text beside a SMILES is read from it.
Legend:
MDR A. baumannii = assay: microbe, parasite or virus in culture; conditions: for Minimum inhibitory concentrations, MDR A. baumannii: CLSI broth microdilution, CAMHB with 50 mg/L Ca2+, 10 mg/L Mg2+, 5 × 10^5 CFU/ml, 18 h 37 °C, triplicate, strain ATCC BAA-1605; for MIC in 0.2% albumin and 0.01% AcOH added CLSI standard condition, MDR A. baumannii: CAMHB plus 0.2% bovine serum albumin and 0.01% acetic acid, values marked * in Table 2
In short: (§1)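 Broth microdilution per CLSI in cation-adjusted Mueller–Hinton broth with calcium (50 mg/L) and magnesium (10 mg/L); midlog bacteria at final 5 × 10^5 CFU/ml, 18 h at 37 °C. MIC is the lowest peptide concentration without visible turbidity; triplicate, with meropenem and colistin as control antibiotics.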

MDR P. aeruginosa = assay: microbe, parasite or virus in culture; conditions: for Minimum inhibitory concentrations, MDR P. aeruginosa: CLSI broth microdilution, CAMHB with 50 mg/L Ca2+, 10 mg/L Mg2+, 5 × 10^5 CFU/ml, 18 h 37 °C, no visible turbidity, triplicate, strain CCARM 2180; for MIC in 0.2% albumin and 0.01% AcOH added CLSI standard condition, MDR P. aeruginosa: CAMHB plus 0.2% bovine serum albumin and 0.01% acetic acid, values marked * in Table 2
In short: as §1

MDR S. aureus = assay: microbe, parasite or virus in culture; conditions: for Minimum inhibitory concentrations, MDR S. aureus: CLSI broth microdilution, CAMHB with 50 mg/L Ca2+, 10 mg/L Mg2+, 5 × 10^5 CFU/ml, 18 h 37 °C, triplicate, strain KCCM 40510; for MIC in 0.2% albumin and 0.01% AcOH added CLSI standard condition, MDR S. aureus: CAMHB plus 0.2% bovine serum albumin and 0.01% acetic acid, values marked * in Table 2; for MIC at TM potential condition, S. aureus KCCM 40510: bacteria OD 0.1 (5 x 10^7 cfu/ml), CAMHB, 1% DMSO
In short: as §1

[1] = Maximum soluble concentration / turbidity; format: physicochemical; conditions: for Maximum soluble concentration in PBS: lyophilized peptide reconstructed in PBS at 200-6.25 μM, visible turbidity checked every 12 h for 5 days, at least twice
Experimental: Supplementary Methods Bacteria preparation, Antimicrobial peptides preparation, Minimal-inhibitory-concentration measurements, Hemolysis-activity measurements, Tryptophan fluorescence measurements, Isothermal titration calorimetry measurements, Bacteria membrane ion permeation measurements, Outer-inner membrane permeation, Field-emission scanning electron microscopy and Antimicrobial kinetics were performed as described in Materials and Methods. Liposome (LUV) preparation. Bacterial-membrane-mimic DMPC/DMPG unilamellar vesicles (LUV) and mammalian- membrane-mimic PC/cholesterol vesicles with 100-nm diameters were prepared by extrusion. LiposoFast Liposome Factory Basic unit with stabilizer (Avestin, Ottawa, Canada) was used to extrude liposomes 50 times through a polycarbonate membrane filter (pore diameter, 100 nm; filter diameter, 0.75 inches) (Avestin). […] rac-(1-glycerol)) (sodium salt) (DMPG) (Avanti, Alabama, USA); 1,2-Dimyristoyl-sn-glycero-3-phosphocholine (DMPC) (Avanti); and cholesterol (Sigma, Darmstadt, Germany) were used. For circular dichroism, isothermal titration calorimetry, tryptophan fluorescence, and dynamic light scattering experiments, liposomes were reconstructed and resuspendedwith phosphate-buffered saline (PBS; Welgene Inc, Gyeongsangbuk-do, Korea). For calcein-permeation tests, liposomes were reconstructed with calcein solutions (80 mM, 40 mM, 30 mM, 20 mM, and 10 mM) (Sigma, Darmstadt, Germany), purified with Sephadex-G50 columns (Pharmacia biotech, Stockholm, Sweden), and resuspended with PBS. Maximum-soluble -concentration measurements. […] turbidity with PBS. The lowest concentration of peptide without visible turbidity was determined to be the maximu m soluble concentration. Each experiment was performed at least twice. Circular dichroism (CD) spectrum. DMPC/PG -liposome, PC/cholesterol -liposome, and peptide stock solutions were diluted in PBS. For circular dichroism, PBS with neither liposome nor peptides was also prepared. Liposomes and peptides were mixed to […] Samples were transferred into type J/1 cuvettes (Jasco, Tokyo, Japan). Cuvettes were placed into the J -815 circular -dichroism spectrometer (Jasco, Tokyo, Japan). Measurement parameters were as follows: wavelength, 190 -260 nm; data pitch, 0.2 nm; bandwidth, 1.00 nm; […] Each experiment was performed in triplicate. Data below 197 nm was not analyzed because o f experimental difficulties in obtaining those spectra. Each experiment was performed at least twice. Artificial membrane calcein permeation measurements. Calcein fluorescence was used to measure peptide -induced liposome permeation. Calcein solutions (10 mM, 20 mM, or 60 mM) containing PC/PG liposomes and peptides were diluted in PBS ( ×1, ×2, ×3, ×8). […] Liposome solutions (180 μl) were transferred to wells of black, clear -bottomed 96 -well plates (Costar, New York, USA). Peptide […] Liposome-containing plates and peptide -containing plates were inserted into a Flexstation 3 Multi -Mode Microplate Reader (Molecular Devices, California, USA). Peptide solutions (20 μl) were transferred and mixed with liposome solution automatical ly after 30 sec. […] Measurement parameters were as follows: excitation, 490 nm; emission, 520 nm; temperature, 37 °C. […] was transferred and mixed with the liposome -peptide solu tions automatically after 300 sec to acquire fluorescence at maximum leakage. […] Fluorescence measured between 0 -300 sec after addition of 0 μg/ml peptide was considered the baseline. Each experiment was performed at least twice. Dynamic light scattering (DLS) measurements. Dynamic light scattering was used to measure peptide -induced liposome volume changes. PC/PG -liposome stock solutions and peptides were resuspended in PBS. Liposomes and peptides were mixed to […]

MDR E. faecalis = assay: microbe, parasite or virus in culture; conditions: for MIC in 0.2% albumin and 0.01% AcOH added CLSI standard condition, MDR E. faecalis: CAMHB plus 0.2% bovine serum albumin and 0.01% acetic acid, values marked * in Table 2; for Minimum inhibitory concentrations, MDR E. faecalis: CLSI broth microdilution, CAMHB with 50 mg/L Ca2+, 10 mg/L Mg2+, 5 × 10^5 CFU/ml, 18 h 37 °C, triplicate, strain ATCC 51575
In short: as §1

Compound	Minimum inhibitory concentrations, MDR A. baumannii (MDR A. baumannii) [µM]	Minimum inhibitory concentrations, MDR P. aeruginosa (MDR P. aeruginosa)	Minimum inhibitory concentrations, MDR S. aureus (MDR S. aureus) [µM]	MIC in 0.2% albumin and 0.01% AcOH added CLSI standard condition, MDR A. baumannii (MDR A. baumannii) [µM]	MIC in 0.2% albumin and 0.01% AcOH added CLSI standard condition, MDR E. faecalis (MDR E. faecalis) [µM]	MIC in 0.2% albumin and 0.01% AcOH added CLSI standard condition, MDR P. aeruginosa (MDR P. aeruginosa) [µM]	MIC in 0.2% albumin and 0.01% AcOH added CLSI standard condition, MDR S. aureus (MDR S. aureus) [µM]	MIC at TM potential condition, S. aureus KCCM 40510 (MDR S. aureus) [µM]	Maximum soluble concentration in PBS [1] [µM]	Minimum inhibitory concentrations, MDR E. faecalis (MDR E. faecalis) [µM]	Increase of MIC when the S. aureus concentration was increased 200-fold (MDR S. aureus)	further results
CC[C@@H](C)[C@@H](NC(=O)[C@@H](Cc1c[nH]c2ccccc12)NC(=O)[C@@H](CCCNC(=N)N)NC(=O)[C@@H](CCCNC(=N)N)NC(=O)[C@H](N)CCCNC(=N)N)C(=O)N[C@H](Cc1c[nH]c2ccccc12)C(=O)N[C@@H](C(=O)N[C@@H](C(=O)N[C@H](Cc1c[nH]c2ccccc12)C(=O)N[C@H](CCCCN)C(N)=O)[C@H](C)CC)C(C)C [WCopW43] (H-[dR][dR][dR][dW][dI][dW][dV][dI][dW][dK]-NH2)	0.63 (≈ 0.944 µg/mL)	1.25 µM (≈ 1.87 µg/mL)	0.63 (≈ 0.944 µg/mL)									Turbidity in PBS ([1]; 10 mg/ml peptide in PBS): turbid
RLWWRWIVR-NH2 [HLWCopW29-4]		> 20 µM		20	20	> 20	20	> 20	> 200			
Colistin		1.25 µM and 0.63 µM		≤ 0.15		≤ 0.15						
CC[C@@H](C)[C@@H](NC(=O)[C@@H](Cc1c[nH]c2ccccc12)NC(=O)[C@H](NC(=O)[C@@H](CC(C)C)NC(=O)[C@H](N)Cc1c[nH]c2ccccc12)C(C)C)C(=O)N[C@H](Cc1c[nH]c2ccccc12)C(=O)N[C@H](CCCNC(=N)N)C(=O)N[C@H](CCCNC(=N)N)C(=O)N[C@H](CCCNC(=N)N)C(N)=O [WCopW29] (H-[dW][dL][dV][dW][dI][dW][dR][dR][dR]-NH2)			1.25 (≈ 1.71 µg/mL)		0.31	5	0.31	2 (≈ 2.74 µg/mL)	> 200	1.25 (≈ 1.71 µg/mL)	twofold	MIC at different cfu/ml, MDR A. baumannii (MDR A. baumannii; 1 × 10^10 cfu/ml (x2000)): 10 µM (≈ 13.7 µg/mL); MIC at different cfu/ml, MDR A. baumannii (MDR A. baumannii; 2 × 10^8 cfu/ml (x400)): 2.5 µM (≈ 3.42 µg/mL); MIC at killing kinetics condition, A. baumannii ATCC BAA 1605 (MDR A. baumannii; 5 x 10^5 cfu/ml, PBS): 0.63 µM (≈ 0.863 µg/mL); MIC at different cfu/ml, MDR E. faecalis (MDR E. faecalis; 2 × 10^8 cfu/ml (x400)): 2.5 µM (≈ 3.42 µg/mL); MIC at killing kinetics condition, E. faecalis ATCC 51575 (MDR E. faecalis; 5 x 10^5 cfu/ml, PBS): 1.25 µM (≈ 1.71 µg/mL); MIC at different cfu/ml, MDR P. aeruginosa (MDR P. aeruginosa; 2 × 10^8 cfu/ml (x400)): 5 µM (≈ 6.85 µg/mL); MIC at killing kinetics condition, P. aeruginosa CCARM 2180 (MDR P. aeruginosa; 5 x 10^5 cfu/ml, PBS): 5 µM (≈ 6.85 µg/mL); MIC at different cfu/ml, MDR S. aureus (MDR S. aureus; 1 × 10^10 cfu/ml (x2000)): 5 µM (≈ 6.85 µg/mL); MIC at different cfu/ml, MDR S. aureus (MDR S. aureus; 2 × 10^8 cfu/ml (x400)): 2.5 µM (≈ 3.42 µg/mL); MIC at killing kinetics condition, S. aureus KCCM 40510 (MDR S. aureus; 5 x 10^5 cfu/ml, PBS): 1.25 µM (≈ 1.71 µg/mL)
WLVWIWRRR-NH2 [LWCopW29]	1.25	> 20 µM	5	0.31	1.25	20	1.25		> 200	5	twofold	
